Reference: patent US10201568B2, “Brain, spinal, and nerve injury treatment” (EUSTRALIS PHARMACEUTICALS LIMITED, priority 2000, dated 2019)

How the values were obtained:
[1] = tested on: brain injured animals; experiment: Barnes Circular Maze, cognitive outcome after brain injury; assay type: in vivo
From the text: (§1) A number of commercially synthesized substance P receptor antagonists are currently available from standard scientific chemical suppliers, as is apparent form Tables 1, 2, and 3. We chose to use the compound N-acetyl-L-tryptophan based on its low lipid solubility that limits its ability to naturally cross the blood brain barrier and the fact that it is relatively inexpensive.

[2] = tested on: brain injured animals; experiment: brain water accumulation (cerebral oedema) after injury; assay type: in vivo; conditions: at 24 hours after injury, compared to vehicle treated controls
Method: (§2) This was consistent with the observation that N-acetyl-L-tryptophan reduced brain penetration of Evans blue at 5 hours after injury: the time associated with maximum blood brain barrier permeability and reduced vasogenic oedema formation.

[3] = limits its ability to naturally cross the blood brain barrier; cited from earlier work
[4] = tested on: brain injured animals; experiment: otarod test, motor outcome after brain injury; assay type: in vivo
From the text: as §1

[5] = tested on: blood brain barrier permeability; experiment: brain penetration of Evans blue after injury; assay type: in vivo; conditions: at 5 hours after injury (time of maximum blood brain barrier permeability)
Method: as §2

[6] = intravenous 246 mg/kg (saline vehicle) at 30 minutes after brain injury, apparent at 24 hours, persisted for 14 day assessment period, vs vehicle

Q: For `CC(=O)N[C@@H](Cc1c[nH]c2ccccc12)C(=O)O` [N-acetyl-L-tryptophan], which “cognitive outcome of brain injured animals” value ([1]; 24.6 mg/kg) is on record?
A: significantly improved

Q: And the “cognitive outcome as assessed by the Barnes Circular Maze” value [1, 6]?
A: significant improvement

Q: And the “brain water accumulation (i.e. cerebral oedema)” value [2]?
A: significant reduction

Q: What about the lipid solubility [3] of the same compound?
A: low

Q: And the motor outcome ([4]; 24.6 mg/kg)?
A: less of a beneficial effect

Q: And the “motor outcome as assessed by the otarod test” value [4, 6]?
A: significant improvement

Q: And the “brain penetration of Evans blue” value [5]?
A: reduced
